How the values were obtained:
[1] = system: Murine melanoma (B16) cells; assay: Evaluation of the degree of melanin production inhibition in α-MSH-stimulated B16 cells; type: cell-based; conditions: B16 cells with α-MSH; 12.5, 25, 50 or 100 μM soyasaponin Aa; 3 days; absorbance at 490 nm
Protocol: Murine melanoma (B16) cells purchased from the Korean Cell Line Bank were seeded into each well of a 12-well plate (5×10^4 cells/well) in DMEM (Dulbecco's modified eagle's medium) containing FBS (fetal calf serum) or a medium having growth rates equivalent to or higher than those in the DMEM. The cells were cultured at 37° C. with 5% CO2 until they reached about 80% confluency. After cultivation, the medium was removed and samples were replaced in medium diluted with 12.5, 25, 50 or 100 μM of soyasaponin Aa, or 100 ppm (corresponding to 700 μM) of kojic acid, and then cultured at 37° C. with 5% CO2 for 3 days. At this time, α-MSH (melanin stimulation hormone), which is a substance that allows B16 cells to better form melanin during cultivation, was included together in the medium of the other treatment groups except for the untreated control group. […] The concentration range of the samples was determined through toxicity tests. […] The obtained solution was measured for the absorbance at 490 nm using an ELISA reader (Synergy 2, BioTek. USA), and the amount of protein was determined by the Bradford assay, and then the amount of melanin per constant number of cells or the amount of melanin per constant amount of protein was estimated. […]

[2] = target: T1, melanocyte-derived tyrosinase (melan-a cell extract) (Mus musculus, UniProt P11344); assay: Cell extract tyrosinase inhibitory activity (DOPA to dopachrome colorimetric reaction); type: biochemical; conditions: pH 6.8, substrate DOPA, absorbance at 475 nm
T1 construct: melan-a cell extract mixture; endogenous in cells; host or cells: melan-a cells (cell extract)
T1 sequence (P11344 19-533): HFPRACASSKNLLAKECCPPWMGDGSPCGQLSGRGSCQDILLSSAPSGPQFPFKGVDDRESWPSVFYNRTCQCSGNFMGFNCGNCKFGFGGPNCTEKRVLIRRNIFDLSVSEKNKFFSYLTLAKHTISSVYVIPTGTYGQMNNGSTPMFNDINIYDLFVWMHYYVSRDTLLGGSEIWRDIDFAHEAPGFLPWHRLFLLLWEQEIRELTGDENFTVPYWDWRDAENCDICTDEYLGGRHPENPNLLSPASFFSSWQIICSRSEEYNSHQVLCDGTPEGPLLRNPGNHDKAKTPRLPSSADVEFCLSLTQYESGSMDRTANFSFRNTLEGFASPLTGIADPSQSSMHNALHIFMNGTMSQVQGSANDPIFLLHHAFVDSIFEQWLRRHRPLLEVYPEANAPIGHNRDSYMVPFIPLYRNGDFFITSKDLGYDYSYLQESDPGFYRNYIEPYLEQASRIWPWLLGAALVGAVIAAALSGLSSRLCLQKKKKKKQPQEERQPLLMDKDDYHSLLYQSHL
Protocol: Tyrosinase is an important enzyme that regulates the first step that is performed to produce melanin in the process of pigmentation, and tyrosinase inhibitory activity is known to be an important efficacy mechanism for whitening. Therefore, in this test example, the ability of soyasaponin to inhibit the activity of tyrosinase was evaluated using a method for inhibiting the activity of cell extract tyrosinase. The method for evaluating the cell extract tyrosinase inhibitory activity is based on a phenomenon that melanocyte-derived tyrosinase causes a colorimeteric reaction by allowing substrate DOPA (3,4-dihydroxyphenylalanine; colorless) to form dopacrome (reddish brown).
Specific experimental methods are as follows. Kojic acid as a positive control and soyasaponin Aa as an evaluation material were prepared by concentrating four times the concentration to be evaluated. Then, the reaction mixture (pH 6.8, 0.1M potassium phosphate buffer, melan-a cell extract mixture) was prepared in a 96 well plate. Since there may be colors depending on the evaluation material, a reaction mixture containing no cell extract liquid was made into a vehicle for background removal. […] Absorbance was measured at 475 nm using an ELISA reader (Synergy2, BioTek, USA) at intervals of 10 minutes until sufficient colorimeteric reaction had occurred.

CC(=O)O[C@@H]1[C@@H](OC(C)=O)[C@H](O[C@@H]2[C@@H](O)[C@H](O[C@@H]3[C@H](O)C(C)(C)C[C@H]4C5=CC[C@@H]6[C@@]7(C)CC[C@H](O[C@@H]8O[C@H](C(=O)O)[C@@H](O)[C@H](O)[C@H]8O[C@@H]8O[C@H](CO)[C@H](O)[C@H](O)[C@H]8O[C@@H]8O[C@H](CO)[C@@H](O)[C@H](O)[C@H]8O)[C@](C)(CO)[C@@H]7CC[C@@]6(C)[C@]5(C)CC[C@@]34C)OC[C@@H]2O)OC[C@H]1OC(C)=O [soyasaponin Aa]
synthesis of melanin (intracellular FIG. 3 and extracellular FIG. 4) [1]: effectively inhibited
activity of tyrosinase (FIG. 5) [2]: effectively inhibited

Reference: patent publication US20180318197A1, “SOYASAPONIN-CONTAINING COMPOSITION FOR SKIN WHITENING” (AMOREPACIFIC CORPORATION, priority 2015, published 2018)
